Measured values as given in US20260034277A1, “SYSTEMS AND METHODS FOR PATHOGEN INACTIVATION OF BLOOD PRODUCTS” (Cerus Corporation, priority 2024, published 2026).

Tests used:
[1] = Stability of S-303 after reconstitution, HPLC percent total peak area; assay type: physicochemical
[2] = system: RBCs; test: Hemolysis after addition to RBCs of S-303/GSH reconstituted in WFI or saline; assay type: cell-based
Experimental: A study was performed to evaluate water (WFI, water for injection) as an alternative to saline for reconstitution of S-303 and/or GSH, for potential advantages such as manufacturing, cost of goods and/or regulatory requirements. Initially, the combinations of S-303 and GSH both reconstituted in WFI, or alternatively GSH reconstituted in WFI and S-303 reconstituted in saline were compared to the standard method of reconstituting both GSH and S-303 in saline. Following addition to RBCs, the level of hemolysis was evaluated due to water potentially being a hypotonic environment for the RBC.
Based on the extended stability data above for reconstituting S-303 at higher concentrations, an opportunity is provided for using bulk S-303 containers and a dosing device as described above for reconstituting S-303 at higher concentrations followed by a dilution step with diluent as part of the transfer of S-303 to the RBC in the mixing container. With such a dilution step, water may be substituted as an alternative to saline in the reconstitution step for the bulk S-303, followed by dilution in saline prior to each transfer step into individual RBC processing sets. To evaluate the feasibility of water reconstitution followed by saline dilution, an additional study was performed. […]

[3] = Stability of S-303 after reconstitution, HPLC percent total peak area; assay type: physicochemical; remark: listed apart in the source
From the text: Increasing the throughput of RBC processing over the current process may benefit from the preparation of multi-use “bulk” containers of S-303 and GSH stock solutions for transfer (e.g., sequential transfer) into multiple processing sets to treat multiple RBC units. However, the instability of S-303 after reconstitution in the current INTERCEPT Blood System technology would generally not be suitable for such a multi-dose container approach. Toward an objective of multi-dose “bulk” dosing, which would require much longer hold times post-reconstitution, studies were performed to evaluate the stability of S-303 under different conditions, such as when reconstituted at higher concentrations. As control, S-303 was reconstituted at a concentration of 6.1 mM. Additional study arms reconstituted S-303 at 9.4 mM, 14.4 mM and 28.8 mM (Table 10). S-303 levels were measured over 120 min after reconstitution by standard HPLC and calculated as total peak area (e.g., area under the peak, area under the curve) to determine percent stability (percent total area).
Subsequent studies were performed in a similar manner as the above to further evaluate S-303 stability at higher concentrations than tested initially, including reconstitution at 40 mM, 50 mM and 75 mM concentrations.

## O=C(CCNc1c2ccccc2nc2ccccc12)OCCN(CCCl)CCCl [S-303, β-alanine, N-(acridin-9-yl), 2-[bis(2-chloroethyl)amino]ethyl ester]
[1]; 100 mM concentration
  stability time, extrapolation of the data in a best fit curve: approximately 170 min
[1]; 150 mM concentration
  stability time, extrapolation of the data in a best fit curve: ~240 min
[2]; S-303 reconstituted at 28.8 mM or 50 mM in WFI, diluted to 6 mM in saline prior to addition to RBCs, GSH in WFI (FIG. 7)
  hemolysis: eliminated the issue of hydrolysis previously observed
[2]; S-303 reconstituted in WFI, after addition to RBCs, compared with saline reconstitution (FIG. 6)
  level of hemolysis: notable levels of hemolysis
[3]; 75 mM
  stability, glass vials vs hemocompatible blood bags of different sheeting materials: no differences in stability observed
[3]; reconstituted at 6.1 mM (control), 1 min
  Mean % stability: 98%
[3]; reconstituted at 6.1 mM (control), 10 min
  Mean % stability: 97%
[3]; reconstituted at 6.1 mM (control), 20 min
  Mean % stability: 95%
[3]; reconstituted at 6.1 mM (control), 30 min
  Mean % stability: 94%
[3]; reconstituted at 6.1 mM (control), 45 min
  Mean % stability: 92%
[3]; reconstituted at 6.1 mM (control), 60 min
  Mean % stability: 90%
[3]; reconstituted at 6.1 mM (control), 90 min
  Mean % stability: 87%
[3]; reconstituted at 6.1 mM (control), 120 min
  Mean % stability: 85%
[3]; reconstituted at 9.4 mM, 1 min
  Mean % stability: 98%
[3]; reconstituted at 9.4 mM, 10 min
  Mean % stability: 97%
[3]; reconstituted at 9.4 mM, 20 min
  Mean % stability: 96%
[3]; reconstituted at 9.4 mM, 30 min
  Mean % stability: 95%
[3]; reconstituted at 9.4 mM, 45 min
  Mean % stability: 93%
[3]; reconstituted at 9.4 mM, 60 min
  Mean % stability: 92%
[3]; reconstituted at 9.4 mM, 90 min
  Mean % stability: 90%
[3]; reconstituted at 9.4 mM, 120 min
  Mean % stability: 87%
[3]; reconstituted at 14.4 mM, 1 min
  Mean % stability: 99%
[3]; reconstituted at 14.4 mM, 10 min
  Mean % stability: 97%
[3]; reconstituted at 14.4 mM, 20 min
  Mean % stability: 96%
[3]; reconstituted at 14.4 mM, 30 min
  Mean % stability: 96%
[3]; reconstituted at 14.4 mM, 45 min
  Mean % stability: 95%
[3]; reconstituted at 14.4 mM, 60 min
  Mean % stability: 94%
[3]; reconstituted at 14.4 mM, 90 min
  Mean % stability: 92%
[3]; reconstituted at 14.4 mM, 120 min
  Mean % stability: 90%
[3]; reconstituted at 28.8 mM, 1 min
  Mean % stability: 99%
[3]; reconstituted at 28.8 mM, 10 min
  Mean % stability: 98%
[3]; reconstituted at 28.8 mM, 20 min
  Mean % stability: 97%
[3]; reconstituted at 28.8 mM, 30 min
  Mean % stability: 97%
[3]; reconstituted at 28.8 mM, 45 min
  Mean % stability: 96%
[3]; reconstituted at 28.8 mM, 60 min
  Mean % stability: 95%
[3]; reconstituted at 28.8 mM, 90 min
  Mean % stability: 94%
[3]; reconstituted at 28.8 mM, 120 min
  Mean % stability: 92%
[3]; reconstituted at 28.8 mM, up to 60 minutes
  percent stable: > 95%
[3]; reconstituted at 75 mM, through 150 min
  stability: at least 95%
